Laboratory results as given in patent US20110224208A1, “NOVEL INHIBITORS OF FLAVIVIRUS REPLICATION” (KATHOLIEKE UNIVERSITEIT LEUVEN, K.U. LEUVEN R&D, priority 2008, published 2011).
≈ marks a conversion by molar mass, not a printed value.

Tested on: HCV replicon I389luc-ubi-neo/NS3-3'/5.1
Test: Anti-HCV replicon assay (luciferase activity) in Huh-5-2 cells
Format: cell-based, Hepatitis C virus
Settings: Hepatitis C virus, Huh-5-2, 72 h, concentration required to inhibit luciferase activity in the replicon system by 50%
Description: Cells were seeded at a density of 7000 cells per well in 96 well View Plate™ (Packard) in medium containing the same components as described above, except for G418. Cells were allowed to adhere and proliferate for 24 hr. At that time, culture medium was removed and serial dilutions of the test compounds were added in culture medium lacking G418. Interferon alfa 2a (500 IU) was included as a positive control. Plates were further incubated at 37° C. and 5% CO2 for 72 hours. Replication of the HCV replicon in Huh-5 cells results in luciferase activity in the cells. Luciferase activity is measured by adding 50 μl of 1×Glo-lysis buffer (Promega) for 15 minutes followed by 50 ul of the Steady-Glo Luciferase assay reagent (Promega). Luciferase activity is measured with a luminometer and the signal in each individual well is expressed as a percentage of the untreated cultures. […] Instead the density of the culture is measured by means of the MTS method (Promega).

Compound	IC50
CCCCN1C(=O)c2ccccc2C(C(=O)Nc2cccc(OC)c2)C1c1cccs1 (centres unmarked) [C16, 2-Butyl-N-(3-methoxyphenyl)-1-oxo-3-(thiophen-2-yl)-1,2,3,4-tetrahydroisoquinoline-4-carboxamide]	1.1 µg/mL (≈ 2.53 µM)
COCCN1C(=O)c2cc([N+](=O)[O-])ccc2C(C(=O)Nc2cccc(OC)c2)C1c1cccs1 (centres unmarked) [C3, 2-(2-methoxyethyl)-N-(3-methoxyphenyl)-7-nitro-1-oxo-3-(thiophen-2-yl)-1,2,3,4-tetrahydroisoquinoline-4-carboxamide]	40.9 µg/mL (≈ 84.9 µM)
COCCN1C(=O)c2ccccc2C(C(=O)Nc2ccc(Cl)c(Cl)c2)C1c1cccs1 (centres unmarked) [C87, N-(3,4-dichlorophenyl)-2-(2-methoxyethyl)-1-oxo-3-(thiophen-2-yl)-1,2,3,4-tetrahydroisoquinoline-4-carboxamide]	0.15 µg/mL (≈ 0.316 µM)
COCCN1C(=O)c2ccccc2C(C(=O)Nc2cc(-c3ccccc3)[nH]n2)C1c1cccs1 (centres unmarked) [C182, 2-(2-methoxyethyl)-1-oxo-N-(5-phenyl-1H-pyrazol-3-yl)-3-(thiophen-2-yl)-1,2,3,4-tetrahydroisoquinoline-4-carboxamide]	21.8 µg/mL (≈ 46.1 µM)
COCCN1C(=O)c2ccccc2C(C(=O)Nc2ccc(NC(C)=O)cc2)C1c1cccs1 (centres unmarked) [C129, N-(4-acetamidophenyl)-2-(2-methoxyethyl)-1-oxo-3-(thiophen-2-yl)-1,2,3,4-tetrahydroisoquinoline-4-carboxamide]	6.66 µg/mL (≈ 14.4 µM)
COCCN1C(=O)c2cc(OC)c(OC)cc2C(C(=O)Nc2cccc(OC)c2)C1c1cccs1 (centres unmarked) [C75, 6,7-dimethoxy-2-(2-methoxyethyl)-N-(3-methoxyphenyl)-1-oxo-3-(thiophen-2-yl)-1,2,3,4-tetrahydroisoquinoline-4-carboxamide]	43.1 µg/mL (≈ 86.9 µM)
COCCN1C(=O)c2ccc(Cl)cc2C(C(=O)Nc2cccc(OC)c2)C1c1cccs1 (centres unmarked) [C55, 6-chloro-2-(2-methoxyethyl)-N-(3-methoxyphenyl)-1-oxo-3-(thiophen-2-yl)-1,2,3,4-tetrahydroisoquinoline-4-carboxamide]	43 µg/mL (≈ 91.3 µM)
COCCN1C(=O)c2ccccc2C(C(=O)O)C1c1cccs1 (centres unmarked) [C36, 2-(2-methoxyethyl)-1-oxo-3-(thiophen-2-yl)-1,2,3,4-tetrahydroisoquinoline-4-carboxylic acid]	47.1 µg/mL (≈ 142 µM)
COCCN1C(=O)c2ccccc2C(C(=O)Nc2ccccc2-c2ccccc2)C1c1cccs1 (centres unmarked) [C84, N-(biphenyl-2-yl)-2-(2-methoxyethyl)-1-oxo-3-(thiophen-2-yl)-1,2,3,4-tetrahydroisoquinoline-4-carboxamide]	12 µg/mL (≈ 24.9 µM)
COCCN1C(=O)c2ccccc2C(C(=O)Nc2cccc(Cl)c2)C1c1cccs1 (centres unmarked) [C60, N-(3-chlorophenyl)-2-(2-methoxyethyl)-1-oxo-3-(thiophen-2-yl)-1,2,3,4-tetrahydroisoquinoline-4-carboxamide]	0.98 µg/mL (≈ 2.22 µM)
COCCN1C(=O)c2cc(Cl)ccc2C(C(=O)Nc2cccc(OC)c2)C1c1cccs1 (centres unmarked) [C43, 7-Chloro-2-(2-methoxyethyl)-N-(3-methoxyphenyl)-1-oxo-3-(thiophen-2-yl)-1,2,3,4-tetrahydroisoquinoline-4-carboxamide]	0.3 µg/mL (≈ 0.637 µM)
COCCN1C(=O)c2ccccc2C(C(=O)Nc2ccc(OC(F)(F)F)cc2)C1c1cccs1 (centres unmarked) [C113, 2-(2-methoxyethyl)-1-oxo-3-(thiophen-2-yl)-N-(4-(trifluoromethoxy)phenyl)-1,2,3,4-tetrahydroisoquinoline-4-carboxamide]	0.19 µg/mL (≈ 0.387 µM)
CCN1CCC[C@H]1CN1C(=O)c2ccccc2C(C(=O)Nc2cccc(OC)c2)C1c1cccs1 (stereo partly drawn) [C74, 2-(((S)-1-ethylpyrrolidin-2-yl)methyl)-N-(3-methoxyphenyl)-1-oxo-3-(thiophen-2-yl)-1,2,3,4-tetrahydroisoquinoline-4-carboxamide]	36 µg/mL (≈ 73.4 µM)
COCCN1C(=O)c2ccccc2C(C(=O)Nc2cccc(OC)c2)C1C (centres unmarked) [C69, 2-(2-methoxyethyl)-N-(3-methoxyphenyl)-3-methyl-1-oxo-1,2,3,4-tetrahydroisoquinoline-4-carboxamide]	8.7 µg/mL (≈ 23.6 µM)
